Assay results as given in publication PMC8802806, “Synthesis and Antitumor Activity of Erlotinib Derivatives Linked With 1,2,3-Triazole” (Frontiers in Pharmacology, 2022).
Several values for one entry are separate records, joined by “and”; a condition that tells them apart may be missing. Equal values may be shown once. Read-outs that look alike come from different tables or passages of the source.

Key:
[1] = test system: HeLa cells; experiment: Cell antiproliferative activity assay (CCK8); format: cell-based, human; details: for inhibition at 0.25 µM: 250 nM; for inhibition at 0.5 µM: 500 nM; for inhibition at 1 µM: 1000 nM; for inhibition at 2 µM: 2000 nM; for inhibition at 4 µM: 4000 nM; for inhibition at 8 µM: 8000 nM; for inhibition at 16 µM: 16000 nM
Summary of the method: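 HeLa cell antiproliferative activity was measured with a CCK8 assay. Cells were plated at 2,000 cells per well in 96-well plates and incubated overnight, then exposed to inhibitor dilutions (0.1 nM to 100 μM, 0.1% DMSO) for 48 h. CCK8 was added for 2 h, absorbance was read at 450 nm (reference 630 nm), and IC50 values were calculated in GraphPad Prism 6.0.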

[2] = test system: HeLa cells; experiment: Flow cytometry detection for cell apoptosis (Annexin V/PI); format: cell-based, human; details: for Q1 (flow cytometry quadrant, Figure 4A) / Q4 (flow cytometry quadrant, Figure 4A) / Q2: FITC-A+ , PE-A+ Freq. of Parent / Q3: FITC-A+ , PE-A- Freq. of Parent: Annexin V/PI; for Q2: FITC-A+ , PE-A+ Freq. of Parent / Q3: FITC-A+ , PE-A- Freq. of Parent / Q2+Q3 (column without head, sum on percent scale): single samples
Procedure: Cell-apoptosis analysis was carried out by flow cytometry using the Annexin V/PI apoptosis kit (Solarbio, China) according to the manufacturer’s manual. Briefly, HeLa (5 × 10^4/well) cells were seeded in 12-well plates for 24 h and then treated with 0.1% DMSO (as control) or various concentrations of compounds 4d, 4k, and 4l for 72 h, respectively. Cells were harvested, washed with PBS, and then incubated with 100 μl of 1 × Annexin V binding buffer containing 1 μl FITC Annexin V for 10 min at RT in the dark. Cells were incubated for another 5 min at room temperature (RT) in the dark after 1 μl PI was added. PBS (200 µl) was added to each tube for flow cytometry analysis (BriCyte E6). The percentages of apoptotic cells were analyzed using FlowJo soft.

[3] = test system: HeLa cells; experiment: Flow cytometry detection for cell cycle; format: cell-based, human; details: 6 μM, 48 h
Procedure: HeLa (5 × 10^4/well) cells were seeded in 12-well plates for 24 h and then treated with 0.1% DMSO (as control), compounds 4d, 4k, and 4l of various concentrations for 48 h, respectively. The treated cells were harvested, washed with PBS, and then stained using the cell-cycle staining kit [Multisciences (Lianke) Biotech] according to the manufacturer’s manual. The distribution of cell-cycle phases with different DNA contents was determined by flow cytometry (BriCyte E6) and analyzed using ModFit LT software.

[4] = test system: HeLa cells; experiment: Colony formation assay; format: cell-based, human
Procedure: HeLa cells were seeded in six-well plates at the density of 500/well for 24 h, and then treated with 0.1% DMSO (as control), various concentrations of compounds 4d, 4k, and 4l, respectively. The cells were incubated for 2 weeks in a 5% CO2 environment at 37°C for colony formation. The media was gently removed from each of the plates, and then each plate was washed with PBS twice. The colonies were fixed with 4% polyformaldehyde for 10 min and then wash the cells with ddH2O twice. Stain with 1 ml Crystal Violet Staining Solution (Beyotime, China) for 10 min. Wash excess crystal violet with ddH2O and allow dishes to dry. Take pictures of the plate and count the colonies.

[5] = HeLa cells, CCK8, 48 h, mean ± SD, n = 3, read-out: IC50 (μM) HeLa
[6] = Homo sapiens, HeLa, 48 h, HeLa cells, CCK8, 48 h, mean ± SD, n = 3, read-out: IC50 (μM) HeLa
[7] = Homo sapiens, HeLa, HELA 2000cells/well, supplement DataSheet2, Repeat1, read-out: IC50 Repeat1
[8] = Homo sapiens, HeLa, HELA 2000cells/well, supplement DataSheet2, Repeat 2, read-out: IC50 Repeat 2
[9] = Homo sapiens, HeLa, HELA 2000cells/well, supplement DataSheet2, mean of two repeats ± SD, read-out: IC50 mean±SD
[10] = Homo sapiens, HELA 2000cells/well, Repeat1, read-out: Inhibition (%) Repeat1
[11] = Homo sapiens, HELA 2000cells/well, Repeat2, read-out: Inhibition (%) Repeat2

## COCCOc1cc2ncnc(Nc3cccc(-c4cn(-c5ccccc5OC)nn4)c3)c2cc1OCCOC [Compound 4k, [6,7-Bis-(2-methoxy-ethoxy)-quinazolin-4-yl]-{3-[1-(2-methoxy-phenyl)-1H-[1,2,3]triazol-4-yl]-phenyl}-amine]
[1]; [5]
  IC50: 4.16 ± 0.48 µM
[1]; [6]
  IC50: 3.79 µM
[1]; [7]
  IC50: 3.72 µM
[1]; [8]
  IC50: 4.68 µM
[1]; [9]
  IC50: 4.16 ± 0.481 µM
[1]; [10]
  inhibition at 0.25 µM: 3.39%
  inhibition at 0.5 µM: 4.2%
  inhibition at 1 µM: 8.3%
  inhibition at 2 µM: 22.3%
  inhibition at 4 µM: 48.8%
  inhibition at 8 µM: 90.1%
  inhibition at 16 µM: 96.8%
[1]; [11]
  inhibition at 0.25 µM: 0%
  inhibition at 0.5 µM: 6.96%
  inhibition at 1 µM: 7.05%
  inhibition at 2 µM: 10.7%
  inhibition at 4 µM: 43.1%
  inhibition at 8 µM: 73.9%
  inhibition at 16 µM: 97%
[2]; 3 μM, 72 h
  Q1 (flow cytometry quadrant, Figure 4A): 2.64%
  Q4 (flow cytometry quadrant, Figure 4A): 93.0%
  Q2: FITC-A+ , PE-A+ Freq. of Parent: 3.63%
  Q3: FITC-A+ , PE-A- Freq. of Parent: 0.75%
[2]; 6 μM, 72 h
  Q1 (flow cytometry quadrant, Figure 4A): 8.66%
  Q4 (flow cytometry quadrant, Figure 4A): 64.2%
  Q2: FITC-A+ , PE-A+ Freq. of Parent: 21.9%
  Q3: FITC-A+ , PE-A- Freq. of Parent: 5.30%
[2]; 12 μM, 72 h
  Q1 (flow cytometry quadrant, Figure 4A): 24.0%
  Q4 (flow cytometry quadrant, Figure 4A): 11.6%
  Q2: FITC-A+ , PE-A+ Freq. of Parent: 61.9%
  Q3: FITC-A+ , PE-A- Freq. of Parent: 2.53%
[3]
  cell cycle phase at which HeLa cells were arrested: both G0/G1 and G2/M
other
  melting point: 87 to 90 °C

## COCCOc1cc2ncnc(Nc3cccc(-c4cn(-c5ccc(C)cc5)nn4)c3)c2cc1OCCOC [Compound 4l, [6,7-Bis-(2-methoxy-ethoxy)-quinazolin-4-yl]-[3-(1-p-tolyl-1H-[1,2,3]triazol-4-yl)-phenyl]-amine]
[1]; [5]
  IC50: 4.51 ± 0.08 µM
[1]; [6]
  IC50: 4.36 µM
[1]; [7]
  IC50: 4.41 µM
[1]; [8]
  IC50: 4.58 µM
[1]; [9]
  IC50: 4.51 ± 0.083 µM
[1]; [10]
  inhibition at 0.25 µM: 2.96%
  inhibition at 0.5 µM: 5.57%
  inhibition at 1 µM: 8.62%
  inhibition at 2 µM: 12.6%
  inhibition at 4 µM: 37.2%
  inhibition at 8 µM: 96.7%
  inhibition at 16 µM: 99%
[1]; [11]
  inhibition at 0.25 µM: 0%
  inhibition at 0.5 µM: 0.522%
  inhibition at 1 µM: 4.7%
  inhibition at 2 µM: 6.88%
  inhibition at 4 µM: 32%
  inhibition at 8 µM: 96.9%
  inhibition at 16 µM: 98.9%
[2]; 3 μM, 72 h
  Q1 (flow cytometry quadrant, Figure 4A): 3.78%
  Q4 (flow cytometry quadrant, Figure 4A): 84.8%
  Q2: FITC-A+ , PE-A+ Freq. of Parent: 9.69%
  Q3: FITC-A+ , PE-A- Freq. of Parent: 1.71%
[2]; 3 μM, 72 h, listed as e12
  Q2: FITC-A+ , PE-A+ Freq. of Parent: 9.69% and 6.86% and 8.36%
  Q3: FITC-A+ , PE-A- Freq. of Parent: 1.71% and 1.25% and 0.95%
[2]; 3 μM, listed as e12
  Q2+Q3 (column without head, sum on percent scale): 11.4 and 8.11 and 9.31
[2]; 6 μM, 72 h
  Q1 (flow cytometry quadrant, Figure 4A): 3.76%
  Q4 (flow cytometry quadrant, Figure 4A): 83.5%
  Q2: FITC-A+ , PE-A+ Freq. of Parent: 11.1%
  Q3: FITC-A+ , PE-A- Freq. of Parent: 1.72%
[2]; 6 μM, 72 h, listed as e12
  Q2: FITC-A+ , PE-A+ Freq. of Parent: 8.62% and 11.1% and 7.43%
  Q3: FITC-A+ , PE-A- Freq. of Parent: 1.73% and 1.72% and 1.32%
[2]; 6 μM, listed as e12
  Q2+Q3 (column without head, sum on percent scale): 10.35 and 12.82 and 8.75
[2]; 12 μM, 72 h
  Q1 (flow cytometry quadrant, Figure 4A): 4.50%
  Q4 (flow cytometry quadrant, Figure 4A): 78.5%
  Q2: FITC-A+ , PE-A+ Freq. of Parent: 14.1%
  Q3: FITC-A+ , PE-A- Freq. of Parent: 2.91%
[2]; 12 μM, 72 h, listed as e12
  Q2: FITC-A+ , PE-A+ Freq. of Parent: 14.8% and 14.1% and 12.5%
  Q3: FITC-A+ , PE-A- Freq. of Parent: 2.43% and 2.91% and 2.33%
[2]; 12 μM, 72 h, three independent experiments
  cell apoptosis in HeLa cells, percentage: 16.36%
[2]; 12 μM, listed as e12
  Q2+Q3 (column without head, sum on percent scale): 17.23 and 17.01 and 14.83
[4]; 6 uM, repeats 1-3
  Number of Colonies /well: 291 and 246 and 217
[4]; 12 μM, 2 weeks
  effect on cell colony formation: entirely inhibited
other
  melting point: 95 to 98 °C
